Source: patent publication US20040219543A1, “Method for specifically detecting, isolating and characterizing cells from body samples by transfecting nucleic acid constructs” (priority 2001, published 2004)

What was measured:
tumor cells = conditions: by inhibiting the PPARδ transcription factor; cited from earlier work
PPARδ = target: T1, PPARδ (Homo sapiens, UniProt Q03181); test: PPARδ-responsive αGFPT204I reporter gene expression in transfected SW480 cells incubated with NSAIDs, flow cytometry; format: cell-based; conditions: 300 μM, 10 hour incubation of transfected SW480 cells; expression returns virtually to background level
T1 construct: Because of Wnt signal activity, SW480 cells overexpress the transcription factor PPARδ; endogenous in cells; host or cells: SW480 colon carcinoma cells
T1 sequence (Q03181 1-441): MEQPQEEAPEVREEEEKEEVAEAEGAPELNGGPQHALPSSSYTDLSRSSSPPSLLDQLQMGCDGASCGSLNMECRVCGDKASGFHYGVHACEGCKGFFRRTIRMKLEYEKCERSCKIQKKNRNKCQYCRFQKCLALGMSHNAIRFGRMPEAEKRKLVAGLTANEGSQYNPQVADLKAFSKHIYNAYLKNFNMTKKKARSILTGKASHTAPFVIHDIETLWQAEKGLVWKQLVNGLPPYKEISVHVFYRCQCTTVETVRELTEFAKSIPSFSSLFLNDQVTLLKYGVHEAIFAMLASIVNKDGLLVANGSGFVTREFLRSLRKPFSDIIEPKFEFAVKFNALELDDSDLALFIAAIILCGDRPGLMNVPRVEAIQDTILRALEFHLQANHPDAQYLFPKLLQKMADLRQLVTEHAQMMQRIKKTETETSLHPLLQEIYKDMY

inhibition of the observed activation of the FOP-αGFPT204I reporter gene in the presence of functional PPARδ-DNA binding sites (PPARδ) | Compound | growth of tumor cells (tumor cells)
– | CC1=C(CC(=O)O)c2cc(F)ccc2/C1=C\c1ccc([S+](C)[O-])cc1 (stereo not shown) [sulindac] | able to inhibit the growth of tumor cells
significantly inhibits | CSc1ccc(/C=C2/C(C)=C(CC(=O)O)c3cc(F)ccc32)cc1 [Sulindac sulphide] | –
– | CC(=O)Oc1ccccc1C(=O)O [aspirin] | able to inhibit the growth of tumor cells
significantly inhibits | COc1ccc2c(c1)c(CC(=O)O)c(C)n2C(=O)c1ccc(Cl)cc1 [indomethacin] | –
